Data as given in patent US20230406864A1, “7-AZOLE SUBSTITUTED 2-AMINOQUINAZOLINE INHIBITORS OF HPK1” (MERCK SHARP & DOHME LLC, priority 2020, published 2023).

Target: T1, Human HPK1, catalytic domain (Homo sapiens, UniProt Q92918)
T1 construct: purchased Cama (so in the source)
T1 sequence (Q92918 1-346): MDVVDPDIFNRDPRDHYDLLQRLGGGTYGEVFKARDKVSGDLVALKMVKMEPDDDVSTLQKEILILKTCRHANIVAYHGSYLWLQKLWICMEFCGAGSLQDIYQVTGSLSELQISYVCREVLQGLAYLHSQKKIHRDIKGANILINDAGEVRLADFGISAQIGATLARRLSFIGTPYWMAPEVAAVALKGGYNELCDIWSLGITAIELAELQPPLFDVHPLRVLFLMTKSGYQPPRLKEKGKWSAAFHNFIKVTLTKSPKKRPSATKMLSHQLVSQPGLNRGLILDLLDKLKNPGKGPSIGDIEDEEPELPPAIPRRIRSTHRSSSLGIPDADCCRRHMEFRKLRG
Assay: HPK1-SLP76 TR-FRET assay
Format: biochemical
Conditions: HPK1 kinase domain 0.075 nM; full length SLP-76 10 nM; ATP 10 μM; 30 min preincubation; 60 min reaction; room temperature

IC50	SMILES
0.063 nM	Cc1c(-c2cc3nc(Nc4cc5n(n4)CCN(C(C)C)C(=O)C5)ncc3c(N)c2F)cnc2c1NCCO2 [Example 2-20, 2-{[5-amino-6-fluoro-7-(8-methyl-2,3-dihydro-1H-pyrido[2,3-b][1,4]oxazin-7-yl)quinazolin-2-yl]amino}-6-(propan-2-yl)-7,8-dihydro-4H-pyrazolo[1,5-d][1,4]diazepin-5(6H)-one]
0.076 nM	CCn1cc(Nc2ncc3c(N)c(F)c(-c4cnc5c(c4C)NCCO5)cc3n2)cn1 [Example 2-22, N~2~-(1-ethyl-1H-pyrazol-4-yl)-6-fluoro-7-(8-methyl-2,3-dihydro-1H-pyrido[2,3-b][1,4]oxazin-7-yl)quinazoline-2,5-diamine]
0.19 nM	Cc1c(-c2cc3nc(Nc4cnn(C5CCC5)c4)ncc3c(N)c2F)cnc2c1NCCO2 [Example 2-23, N~2~-(1-cyclobutyl-1H-pyrazol-4-yl)-6-fluoro-7-(8-methyl-2,3-dihydro-1H-pyrido[2,3-b][1,4]oxazin-7-yl)quinazoline-2,5-diamine]
1.1 nM	Cc1c(-c2cc3nc(Nc4cnn(CC(C)(C)O)c4)ncc3c(N)c2F)cnc2c1NCCO2 [Example 2-24, 1-(4-{[5-amino-6-fluoro-7-(8-methyl-2,3-dihydro-1H-pyrido[2,3-b][1,4]oxazin-7-yl)quinazolin-2-yl]amino}-1H-pyrazol-1-yl)-2-methylpropan-2-ol]
0.49 nM	Cc1c(-c2cc3nc(Nc4cnn(C5CC5)c4Cl)ncc3c(N)c2F)cnc2c1NCCO2 [Example 2-25, N~2~-(5-chloro-1-cyclopropyl-1H-pyrazol-4-yl)-6-fluoro-7-(8-methyl-2,3-dihydro-1H-pyrido[2,3-b][1,4]oxazin-7-yl)quinazoline-2,5-diamine]
0.38 nM	Cc1c(-c2cc3nc(Nc4cnn(C5(C)CC5)c4Cl)ncc3c(N)c2F)cnc2c1NCCO2 [Example 2-26, N~2~-[5-chloro-1-(1-methylcyclopropyl)-1H-pyrazol-4-yl]-6-fluoro-7-(8-methyl-2,3-dihydro-1H-pyrido[2,3-b][1,4]oxazin-7-yl)quinazoline-2,5-diamine]
1 nM	CCn1cc(Nc2ncc3c(N)c(F)c(-c4cnc5c(c4C)NCCO5)cc3n2)c(C)n1 [Example 2-27, N~2~-(1-ethyl-3-methyl-1H-pyrazol-4-yl)-6-fluoro-7-(8-methyl-2,3-dihydro-1H-pyrido[2,3-b][1,4]oxazin-7-yl)quinazoline-2,5-diamine]
0.094 nM	CNC(=O)C12CC(n3cc(Nc4ncc5c(N)c(F)c(-c6cnc7c(c6C)NCCO7)cc5n4)cn3)(C1)C2 [Example 2-28, 3-(4-{[5-amino-6-fluoro-7-(8-methyl-2,3-dihydro-1H-pyrido[2,3-b][1,4]oxazin-7-yl)quinazolin-2-yl]amino}-1H-pyrazol-1-yl)-N-methylbicyclo[1.1.1]pentane-1-carboxamide]
0.1 nM	Cc1c(-c2cc3nc(Nc4cnn(C(F)F)c4C)ncc3c(N)c2F)cnc2c1NCCO2 [Example 2-29, N~2~-[1-(difluoromethyl)-5-methyl-1H-pyrazol-4-yl]-6-fluoro-7-(8-methyl-2,3-dihydro-1H-pyrido[2,3-b][1,4]oxazin-7-yl)quinazoline-2,5-diamine]
0.051 nM	Cc1c(-c2cc3nc(Nc4cnn(C)c4C)ncc3c(N)c2F)cnc2c1NCCO2 [Example 2-30, N~2~-(1,5-dimethyl-1H-pyrazol-4-yl)-6-fluoro-7-(8-methyl-2,3-dihydro-1H-pyrido[2,3-b][1,4]oxazin-7-yl)quinazoline-2,5-diamine]
0.2 nM	Cc1nn(CC(F)F)cc1Nc1ncc2c(N)c(F)c(-c3cnc4c(c3C)NCCO4)cc2n1 [Example 2-31, N~2~-[1-(2,2-difluoroethyl)-3-methyl-1H-pyrazol-4-yl]-6-fluoro-7-(8-methyl-2,3-dihydro-1H-pyrido[2,3-b][1,4]oxazin-7-yl)quinazoline-2,5-diamine]
0.054 nM	Cc1c(-c2cc3nc(Nc4cnn(CC(F)F)c4)ncc3c(N)c2F)cnc2c1NCCO2 [Example 2-32, N~2~-[1-(2,2-difluoroethyl)-1H-pyrazol-4-yl]-6-fluoro-7-(8-methyl-2,3-dihydro-1H-pyrido[2,3-b][1,4]oxazin-7-yl)quinazoline-2,5-diamine]
3.5 nM	Cc1nn(C(C)C)cc1Nc1ncc2c(N)c(F)c(-c3cnc4c(c3C)NCCO4)cc2n1 [Example 2-33, 6-fluoro-7-(8-methyl-2,3-dihydro-1H-pyrido[2,3-b][1,4]oxazin-7-yl)-N~2~-[3-methyl-1-(propan-2-yl)-1H-pyrazol-4-yl]quinazoline-2,5-diamine]
0.058 nM	Cc1nn(C)cc1Nc1ncc2c(N)c(F)c(-c3cnc4c(c3C)NCCO4)cc2n1 [Example 2-34, N~2~-(1,3-dimethyl-1H-pyrazol-4-yl)-6-fluoro-7-(8-methyl-2,3-dihydro-1H-pyrido[2,3-b][1,4]oxazin-7-yl)quinazoline-2,5-diamine]
0.051 nM	Cc1c(-c2cc3nc(Nc4cnn5c4CCC5)ncc3c(N)c2F)cnc2c1NCCO2 [Example 2-35, N~2~-(5,6-dihydro-4H-pyrrolo[1,2-b]pyrazol-3-yl)-6-fluoro-7-(8-methyl-2,3-dihydro-1H-pyrido[2,3-b][1,4]oxazin-7-yl)quinazoline-2,5-diamine]
0.28 nM	Cc1nsc(Nc2ncc3c(N)c(F)c(-c4cnc5c(c4C)NCCO5)cc3n2)c1Cl [Example 2-36, N~2~-(4-chloro-3-methyl-1,2-thiazol-5-yl)-6-fluoro-7-(8-methyl-2,3-dihydro-1H-pyrido[2,3-b][1,4]oxazin-7-yl)quinazoline-2,5-diamine]
0.071 nM	Cc1cnsc1Nc1ncc2c(N)c(F)c(-c3cnc4c(c3C)NCCO4)cc2n1 [Example 2-37, 6-fluoro-7-(8-methyl-2,3-dihydro-1H-pyrido[2,3-b][1,4]oxazin-7-yl)-N~2~-(4-methyl-1,2-thiazol-5-yl)quinazoline-2,5-diamine]
0.57 nM	CCn1ncc(Nc2ncc3c(N)c(F)c(-c4cnc5c(c4C)NCCO5)cc3n2)c1F [Example 2-38, N~2~-(1-ethyl-5-fluoro-1H-pyrazol-4-yl)-6-fluoro-7-(8-methyl-2,3-dihydro-1H-pyrido[2,3-b][1,4]oxazin-7-yl)quinazoline-2,5-diamine]
0.051 nM	Cc1c(-c2cc3nc(Nc4cnn(C5COC5)c4)ncc3c(N)c2F)cnc2c1NCCO2 [Example 2-39, 6-fluoro-7-(8-methyl-2,3-dihydro-1H-pyrido[2,3-b][1,4]oxazin-7-yl)-N~2~-[1-(oxetan-3-yl)-1H-pyrazol-4-yl]quinazoline-2,5-diamine]
0.27 nM	CNC(=O)Cn1cc(Nc2ncc3c(N)c(F)c(-c4cnc5c(c4C)NCCO5)cc3n2)c(C)n1 [Example 2-40, 2-(4-{[5-amino-6-fluoro-7-(8-methyl-2,3-dihydro-1H-pyrido[2,3-b][1,4]oxazin-7-yl)quinazolin-2-yl]amino}-3-methyl-1H-pyrazol-1-yl)-N-methylacetamide]
0.84 nM	CNC(=O)C(C)(C)n1cc(Nc2ncc3c(N)c(F)c(-c4cnc5c(c4C)NCCO5)cc3n2)cn1 [Example 2-41, 2-(4-{[5-amino-6-fluoro-7-(8-methyl-2,3-dihydro-1H-pyrido[2,3-b][1,4]oxazin-7-yl)quinazolin-2-yl]amino}-1H-pyrazol-1-yl)-N,2-dimethylpropanamide]
0.13 nM	Cc1c(-c2cc3nc(Nc4cnn(CS(C)(=O)=O)c4)ncc3c(N)c2F)cnc2c1NCCO2 [Example 2-42, 6-fluoro-7-(8-methyl-2,3-dihydro-1H-pyrido[2,3-b][1,4]oxazin-7-yl)-N2-(1-((methylsulfonyl)methyl)-1H-pyrazol-4-y)quinazoline-2,5-diamine]
0.14 nM	Cc1c(-c2c(F)c(N)c3cnc(Nc4cnn(C5(C)CC5)c4)nc3c2Cl)cnc2c1NCCO2 [Example 2-43, (+ and −)-8-chloro-6-fluoro-N~2~-[1-(1-methylcyclopropyl)-1H-pyrazol-4-yl]-7-(8-methyl-2,3-dihydro-1H-pyrido[2,3-b][1,4]oxazin-7-yl)quinazoline-2,5-diamine]
0.045 nM	Cc1c(-c2cc3nc(Nc4cnn(C5CCN(C)CC5)c4)ncc3c(N)c2F)cnc2c1NCCO2 [Example 2-44, 6-fluoro-7-(8-methyl-2,3-dihydro-1H-pyrido[2,3-b][1,4]oxazin-7-yl)-N~2~-[1-(1-methylpiperidin-4-yl)-1H-pyrazol-4-yl]quinazoline-2,5-diamine]
0.18 nM	Cc1c(-c2cc3nc(Nc4cnn(C5CC5)c4C)ncc3c(N)c2F)cnc2c1NCCO2 [Example 2-45, N~2~-(1-cyclopropyl-5-methyl-1H-pyrazol-4-yl)-6-fluoro-7-(8-methyl-2,3-dihydro-1H-pyrido[2,3-b][1,4]oxazin-7-yl)quinazoline-2,5-diamine]
0.051 nM	Cc1c(-c2cc3nc(Nc4cnn(C56CC(C(C)(C)O)(C5)C6)c4)ncc3c(N)c2F)cnc2c1NCCO2 [Example 2-46, 2-[3-(4-{[5-amino-6-fluoro-7-(8-methyl-2,3-dihydro-1H-pyrido[2,3-b][1,4]oxazin-7-yl)quinazolin-2-yl]amino}-1H-pyrazol-1-yl)bicyclo[1.1.1]pentan-1-yl]propan-2-ol]
0.177 nM	Cc1c(-c2cc3nc(Nc4cnn([C@H]5CCN(C)C5)c4)ncc3c(N)c2F)cnc2c1NCCO2 [Example 2-47, (S)-6-fluoro-7-(8-methyl-2,3-dihydro-1H-pyrido[2,3-b][1,4]oxazin-7-yl)-N2-(1-(1-methylpyrrolidin-3-yl)-1H-pyrazol-4-yl)quinazoline-2,5-diamine]
0.166 nM	Cc1c(-c2cc3nc(Nc4cnn([C@@H]5CCN(C)C5)c4)ncc3c(N)c2F)cnc2c1NCCO2 [Example 2-48, (R)-6-fluoro-7-(8-methyl-2,3-dihydro-1H-pyrido[2,3-b][1,4]oxazin-7-yl)-N2-(1-(1-methylpyrrolidin-3-yl)-1H-pyrazol-4-yl)quinazoline-2,5-diamine]
